Data on two molecules can be found in publication PMC7612079 (Science translational medicine, 2021).

Common to all, as to assay type: biochemical
The target of one test is T1, TANK-binding kinase 1 (Homo sapiens, UniProt Q9UHD2).
T1 sequence (Q9UHD2 1-729): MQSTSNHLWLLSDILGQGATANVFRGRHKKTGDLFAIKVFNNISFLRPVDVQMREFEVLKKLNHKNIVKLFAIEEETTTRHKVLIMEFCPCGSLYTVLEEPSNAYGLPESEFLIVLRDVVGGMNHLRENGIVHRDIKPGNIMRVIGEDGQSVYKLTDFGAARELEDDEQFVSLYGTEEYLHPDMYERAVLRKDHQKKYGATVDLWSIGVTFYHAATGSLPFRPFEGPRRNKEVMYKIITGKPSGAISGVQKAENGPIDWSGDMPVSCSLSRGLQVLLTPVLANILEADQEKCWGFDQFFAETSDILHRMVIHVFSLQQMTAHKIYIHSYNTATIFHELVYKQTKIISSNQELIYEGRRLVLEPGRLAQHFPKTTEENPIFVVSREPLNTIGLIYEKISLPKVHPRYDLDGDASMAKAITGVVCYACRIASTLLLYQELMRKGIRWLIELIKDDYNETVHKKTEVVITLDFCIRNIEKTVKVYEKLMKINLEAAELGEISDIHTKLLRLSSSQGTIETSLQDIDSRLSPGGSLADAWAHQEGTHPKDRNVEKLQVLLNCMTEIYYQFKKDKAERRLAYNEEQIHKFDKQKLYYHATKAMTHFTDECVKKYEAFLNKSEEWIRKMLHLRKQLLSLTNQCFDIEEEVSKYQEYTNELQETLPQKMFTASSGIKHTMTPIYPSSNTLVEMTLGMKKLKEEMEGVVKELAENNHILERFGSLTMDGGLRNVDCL
In words: single-point panel of […] kinases at […]. Conditions: read-out: % inhibition at 1 μM.

The target of the next test is AMPK (Homo sapiens, UniProt P54646). Kind of test: single-point panel of […] kinases at […]. Conditions: read-out: % inhibition at 1 μM.
Sequence of AMPK (P54646 whole entry): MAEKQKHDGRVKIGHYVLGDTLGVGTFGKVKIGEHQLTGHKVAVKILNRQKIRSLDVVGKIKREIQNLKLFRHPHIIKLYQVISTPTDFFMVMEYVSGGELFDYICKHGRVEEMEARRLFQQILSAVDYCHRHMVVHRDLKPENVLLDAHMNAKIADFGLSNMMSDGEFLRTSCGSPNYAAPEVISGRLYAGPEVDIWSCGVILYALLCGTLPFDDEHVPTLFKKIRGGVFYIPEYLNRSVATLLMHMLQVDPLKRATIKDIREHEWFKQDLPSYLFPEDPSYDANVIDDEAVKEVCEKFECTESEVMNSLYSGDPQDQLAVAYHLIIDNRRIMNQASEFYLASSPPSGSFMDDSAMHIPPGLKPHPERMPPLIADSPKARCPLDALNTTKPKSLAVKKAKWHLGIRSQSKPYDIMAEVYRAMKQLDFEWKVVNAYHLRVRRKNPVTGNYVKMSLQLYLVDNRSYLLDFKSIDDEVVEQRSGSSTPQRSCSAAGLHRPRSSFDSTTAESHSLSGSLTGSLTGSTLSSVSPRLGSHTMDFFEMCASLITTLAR
Sequence of AMPK (Q9Y478 2-270 partner): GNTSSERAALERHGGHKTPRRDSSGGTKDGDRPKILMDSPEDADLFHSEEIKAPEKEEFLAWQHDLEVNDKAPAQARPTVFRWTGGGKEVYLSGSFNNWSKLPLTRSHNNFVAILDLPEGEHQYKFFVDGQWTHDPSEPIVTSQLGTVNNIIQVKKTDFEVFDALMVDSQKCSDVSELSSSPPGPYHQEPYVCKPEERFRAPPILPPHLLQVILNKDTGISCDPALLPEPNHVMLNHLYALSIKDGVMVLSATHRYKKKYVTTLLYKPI
Sequence of AMPK (P54619 whole entry partner): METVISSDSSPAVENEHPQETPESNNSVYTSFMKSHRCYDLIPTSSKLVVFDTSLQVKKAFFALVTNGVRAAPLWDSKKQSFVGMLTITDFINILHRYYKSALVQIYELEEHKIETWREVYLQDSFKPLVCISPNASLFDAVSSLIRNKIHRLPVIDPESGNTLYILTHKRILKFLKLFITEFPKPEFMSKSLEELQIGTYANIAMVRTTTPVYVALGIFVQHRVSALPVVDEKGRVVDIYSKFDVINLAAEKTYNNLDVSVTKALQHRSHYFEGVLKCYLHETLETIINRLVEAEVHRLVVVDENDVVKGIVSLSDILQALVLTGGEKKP
A further test addresses T2, ULK2 (Homo sapiens, UniProt Q8IYT8).
T2 sequence (Q8IYT8 1-1036): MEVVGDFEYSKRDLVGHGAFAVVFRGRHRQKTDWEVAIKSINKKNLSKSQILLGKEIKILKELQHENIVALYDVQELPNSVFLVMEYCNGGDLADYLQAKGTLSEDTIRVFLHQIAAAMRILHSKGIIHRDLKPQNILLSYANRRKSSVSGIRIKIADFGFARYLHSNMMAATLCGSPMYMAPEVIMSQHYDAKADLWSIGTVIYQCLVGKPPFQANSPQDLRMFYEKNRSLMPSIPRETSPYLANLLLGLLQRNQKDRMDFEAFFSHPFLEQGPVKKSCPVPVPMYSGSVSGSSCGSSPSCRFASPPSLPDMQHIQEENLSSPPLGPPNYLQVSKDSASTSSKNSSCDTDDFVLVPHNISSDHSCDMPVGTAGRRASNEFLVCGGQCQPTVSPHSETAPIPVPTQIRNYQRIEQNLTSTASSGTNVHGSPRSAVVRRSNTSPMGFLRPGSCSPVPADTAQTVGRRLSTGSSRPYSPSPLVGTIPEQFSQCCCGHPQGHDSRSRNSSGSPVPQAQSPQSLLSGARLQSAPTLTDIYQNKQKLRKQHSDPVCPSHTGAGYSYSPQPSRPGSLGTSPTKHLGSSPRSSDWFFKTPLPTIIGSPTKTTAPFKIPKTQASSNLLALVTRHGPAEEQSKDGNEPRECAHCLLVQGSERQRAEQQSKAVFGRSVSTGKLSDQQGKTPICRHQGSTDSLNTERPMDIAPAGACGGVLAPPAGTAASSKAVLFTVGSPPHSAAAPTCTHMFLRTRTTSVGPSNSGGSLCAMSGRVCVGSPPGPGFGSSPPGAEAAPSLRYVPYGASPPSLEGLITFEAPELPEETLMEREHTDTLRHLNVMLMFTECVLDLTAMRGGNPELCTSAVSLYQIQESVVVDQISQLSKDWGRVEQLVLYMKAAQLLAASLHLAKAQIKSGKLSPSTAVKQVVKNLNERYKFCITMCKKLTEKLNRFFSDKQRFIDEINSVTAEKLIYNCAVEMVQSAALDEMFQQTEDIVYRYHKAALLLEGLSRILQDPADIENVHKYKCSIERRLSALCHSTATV
Kind of test: single-point kinase panel at […].

In test [1] the target is T3, ULK1 (unc-51–like autophagy activating kinase 1) (Homo sapiens, UniProt O75385).
T3 sequence (O75385 1-1050): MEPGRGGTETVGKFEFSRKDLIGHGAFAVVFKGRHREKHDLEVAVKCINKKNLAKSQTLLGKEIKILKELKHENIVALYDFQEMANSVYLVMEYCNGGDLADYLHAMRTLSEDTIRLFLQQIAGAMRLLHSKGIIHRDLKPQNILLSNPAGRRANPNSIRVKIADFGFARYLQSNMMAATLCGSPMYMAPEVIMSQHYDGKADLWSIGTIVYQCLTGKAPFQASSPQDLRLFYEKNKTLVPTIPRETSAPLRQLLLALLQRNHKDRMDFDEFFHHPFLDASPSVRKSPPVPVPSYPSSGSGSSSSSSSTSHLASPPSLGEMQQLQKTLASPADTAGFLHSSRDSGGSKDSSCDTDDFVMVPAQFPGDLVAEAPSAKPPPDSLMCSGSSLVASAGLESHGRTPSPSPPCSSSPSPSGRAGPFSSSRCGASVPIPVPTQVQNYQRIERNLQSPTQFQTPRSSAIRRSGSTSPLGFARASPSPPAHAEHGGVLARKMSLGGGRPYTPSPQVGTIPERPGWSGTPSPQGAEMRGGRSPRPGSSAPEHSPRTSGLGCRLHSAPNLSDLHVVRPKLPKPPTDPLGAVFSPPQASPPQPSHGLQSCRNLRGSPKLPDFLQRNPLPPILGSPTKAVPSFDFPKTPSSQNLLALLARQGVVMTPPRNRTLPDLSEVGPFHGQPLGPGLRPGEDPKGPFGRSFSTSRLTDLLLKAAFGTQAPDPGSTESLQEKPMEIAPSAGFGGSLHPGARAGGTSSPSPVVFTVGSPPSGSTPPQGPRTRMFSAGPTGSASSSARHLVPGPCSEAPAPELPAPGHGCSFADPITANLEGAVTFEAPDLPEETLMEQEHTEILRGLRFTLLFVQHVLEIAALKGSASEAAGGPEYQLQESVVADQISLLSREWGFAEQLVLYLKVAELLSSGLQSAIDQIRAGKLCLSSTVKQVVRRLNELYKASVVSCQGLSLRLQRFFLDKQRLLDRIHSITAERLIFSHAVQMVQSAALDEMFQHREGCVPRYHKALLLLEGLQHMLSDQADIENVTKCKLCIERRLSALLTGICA
Kind of test: single-point kinase panel at […]. Conditions: read-out: % inhibition at 1 μM.

For test [2], the target named is T3, ULK1 (unc-51–like autophagy activating kinase 1). In words: radiometric […] kinase assay with myelin basic protein, […] ATP.

The inhibition is the relative decrease from the control value, in per cent. In the case of `CN1CCc2cc(Nc3ncc(C4CC4)c(NCCCNC(=O)C4CCC4)n3)ccc2C1` [MRT68921], the inhibition at 1 µM (at TANK-binding kinase 1; on AMPK; at ULK2 (read-out: % inhibition at 1 μM); in test [1]) was greater than 90% each time.

One may read the IC50 as the concentration needed to halve the response being measured. Higher therefore signals weaker potency in that assay. MRT403: in test [2], the IC50 is 1.6 nM. The “% inhibition at 1 μM” value on ULK2 is listed as greater than 90.
